Test results from the kinase profiling compilation of Christmann-Franck et al. (2016).

Experiments:
Assay in all cases: KINOMEscan competition binding
Settings in all cases: compound 10.0 µM
AAK1 (human) = AAK1 (human) (UniProt Q2M2I8)
AKT3 (human) = AKT3 (human) (UniProt Q9Y243)
ANKK1 (human) = ANKK1 (human) (UniProt Q8NFD2)
BLK (human) = BLK (human) (UniProt P51451)
BMPR1B (human) = BMPR1B (human) (UniProt O00238)
CAMK2D (human) = CAMK2D (human) (UniProt Q13557)
CAMKK2 (human) = CAMKK2 (human) (UniProt Q96RR4)
CDC2L2 (human) = CDC2L2 (human) (UniProt Q9UQ88)
CDK17 (human) = CDK17 (human) (UniProt Q00537)
CHEK1 (human) = CHEK1 (human) (UniProt O14757)
CLK1 (human) = CLK1 (human) (UniProt P49759)
CSNK1G1 (human) = CSNK1G1 (human) (UniProt Q9HCP0)
DMPK (human) = DMPK (human) (UniProt Q09013)
[1] = test system: EIF2AK4 KD2 (human), Q9P2K8 [S808G]
EPHB2 (human) = EPHB2 (human) (UniProt P29323)
EPHB3 (human) = EPHB3 (human) (UniProt P54753)
FES (human) = FES (human) (UniProt P07332)
[2] = test system: FLT3 (human), P36888 [ITD]
FLT4 (human) = FLT4 (human) (UniProt P35916)
[3] = molecular target: JAK1 JH2 pseudokinase (human) (UniProt P23458)
[4] = molecular target: JAK3 JH1 catalytic (human) (UniProt P52333)
LATS1 (human) = LATS1 (human) (UniProt O95835)
LATS2 (human) = LATS2 (human) (UniProt Q9NRM7)
MAP3K11 (human) = MAP3K11 (human) (UniProt Q16584)
MAPK1 (human) = MAPK1 (human) (UniProt P28482)
MARK1 (human) = MARK1 (human) (UniProt Q9P0L2)
MST1R (human) = MST1R (human) (UniProt Q04912)
NEK1 (human) = NEK1 (human) (UniProt Q96PY6)
NEK2 (human) = NEK2 (human) (UniProt P51955)
PAK2 (human) = PAK2 (human) (UniProt Q13177)
PKN1 (human) = PKN1 (human) (UniProt Q16512)
PRKCD (human) = PRKCD (human) (UniProt Q05655)
PRKCE (human) = PRKCE (human) (UniProt Q02156)
RPS6KA1 KD1 (human) = RPS6KA1 KD1 (human) (UniProt Q15418)
SGK110 (human) = SGK110 (human) (UniProt P0C264)
SRPK1 (human) = SRPK1 (human) (UniProt Q96SB4)
STK16 (human) = STK16 (human) (UniProt O75716)
STK17A (human) = STK17A (human) (UniProt Q9UEE5)
STK17B (human) = STK17B (human) (UniProt O94768)
STK32C (human) = STK32C (human) (UniProt Q86UX6)

Sequence of JAK3 JH1 catalytic (human) (P52333 whole entry, looked up): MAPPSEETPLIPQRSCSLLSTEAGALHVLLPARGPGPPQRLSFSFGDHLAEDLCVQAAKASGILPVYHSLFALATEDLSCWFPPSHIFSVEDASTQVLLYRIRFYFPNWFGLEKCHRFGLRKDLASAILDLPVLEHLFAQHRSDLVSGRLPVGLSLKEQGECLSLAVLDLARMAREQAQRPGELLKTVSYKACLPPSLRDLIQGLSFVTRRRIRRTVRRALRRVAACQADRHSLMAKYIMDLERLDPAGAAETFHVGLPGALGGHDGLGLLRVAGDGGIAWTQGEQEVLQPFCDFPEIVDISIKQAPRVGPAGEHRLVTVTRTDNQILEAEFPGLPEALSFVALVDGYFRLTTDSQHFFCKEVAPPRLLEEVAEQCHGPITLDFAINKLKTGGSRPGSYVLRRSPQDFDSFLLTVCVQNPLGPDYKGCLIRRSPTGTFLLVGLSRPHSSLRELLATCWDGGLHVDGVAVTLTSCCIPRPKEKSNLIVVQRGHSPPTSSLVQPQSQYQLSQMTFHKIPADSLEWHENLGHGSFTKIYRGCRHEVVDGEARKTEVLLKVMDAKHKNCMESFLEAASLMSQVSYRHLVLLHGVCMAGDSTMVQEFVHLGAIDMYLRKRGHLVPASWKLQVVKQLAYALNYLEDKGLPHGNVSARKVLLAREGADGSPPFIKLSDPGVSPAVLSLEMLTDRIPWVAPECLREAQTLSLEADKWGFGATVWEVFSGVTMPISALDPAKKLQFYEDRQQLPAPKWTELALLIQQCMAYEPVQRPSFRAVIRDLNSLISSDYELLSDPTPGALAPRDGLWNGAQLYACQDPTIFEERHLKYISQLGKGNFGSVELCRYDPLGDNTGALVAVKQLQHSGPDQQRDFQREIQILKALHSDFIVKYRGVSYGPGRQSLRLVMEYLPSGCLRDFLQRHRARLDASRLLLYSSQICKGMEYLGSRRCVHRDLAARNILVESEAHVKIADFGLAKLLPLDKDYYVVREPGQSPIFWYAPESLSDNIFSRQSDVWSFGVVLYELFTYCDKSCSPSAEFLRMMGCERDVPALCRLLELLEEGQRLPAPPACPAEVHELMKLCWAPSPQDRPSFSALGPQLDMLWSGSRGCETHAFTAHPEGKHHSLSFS
Sequence of CAMK2D (human) (Q13557 whole entry, looked up): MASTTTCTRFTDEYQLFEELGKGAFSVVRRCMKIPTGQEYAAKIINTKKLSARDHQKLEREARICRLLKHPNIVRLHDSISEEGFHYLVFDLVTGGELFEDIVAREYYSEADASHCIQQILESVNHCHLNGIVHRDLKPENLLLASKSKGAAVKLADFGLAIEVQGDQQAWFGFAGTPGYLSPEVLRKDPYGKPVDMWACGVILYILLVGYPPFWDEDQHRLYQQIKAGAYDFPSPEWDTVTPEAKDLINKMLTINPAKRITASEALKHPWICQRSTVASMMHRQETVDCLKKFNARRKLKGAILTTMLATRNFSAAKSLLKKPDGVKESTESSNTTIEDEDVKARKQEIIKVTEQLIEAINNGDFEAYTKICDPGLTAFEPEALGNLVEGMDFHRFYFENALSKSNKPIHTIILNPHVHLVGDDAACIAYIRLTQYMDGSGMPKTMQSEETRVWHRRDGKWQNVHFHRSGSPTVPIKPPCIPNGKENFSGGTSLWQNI
Sequence of RPS6KA1 KD1 (human) (Q15418 whole entry, looked up): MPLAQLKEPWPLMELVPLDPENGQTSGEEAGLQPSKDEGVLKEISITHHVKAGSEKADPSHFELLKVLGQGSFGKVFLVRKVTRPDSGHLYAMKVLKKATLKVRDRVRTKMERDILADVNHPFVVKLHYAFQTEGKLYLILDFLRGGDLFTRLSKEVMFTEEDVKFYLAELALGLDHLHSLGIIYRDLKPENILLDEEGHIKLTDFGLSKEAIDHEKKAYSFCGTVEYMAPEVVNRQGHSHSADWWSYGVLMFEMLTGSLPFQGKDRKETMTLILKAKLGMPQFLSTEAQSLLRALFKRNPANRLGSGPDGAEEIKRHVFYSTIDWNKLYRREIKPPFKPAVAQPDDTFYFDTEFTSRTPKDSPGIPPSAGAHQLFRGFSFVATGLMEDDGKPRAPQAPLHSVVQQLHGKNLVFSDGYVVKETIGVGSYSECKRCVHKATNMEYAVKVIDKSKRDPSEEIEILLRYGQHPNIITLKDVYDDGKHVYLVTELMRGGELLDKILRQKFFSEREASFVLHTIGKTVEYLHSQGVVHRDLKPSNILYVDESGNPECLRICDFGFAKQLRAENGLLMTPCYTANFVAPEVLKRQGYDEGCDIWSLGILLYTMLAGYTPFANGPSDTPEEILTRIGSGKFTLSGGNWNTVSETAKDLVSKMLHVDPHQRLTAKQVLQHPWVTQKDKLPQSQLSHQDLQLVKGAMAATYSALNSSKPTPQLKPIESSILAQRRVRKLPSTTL
Sequence of LATS2 (human) (Q9NRM7 whole entry, looked up): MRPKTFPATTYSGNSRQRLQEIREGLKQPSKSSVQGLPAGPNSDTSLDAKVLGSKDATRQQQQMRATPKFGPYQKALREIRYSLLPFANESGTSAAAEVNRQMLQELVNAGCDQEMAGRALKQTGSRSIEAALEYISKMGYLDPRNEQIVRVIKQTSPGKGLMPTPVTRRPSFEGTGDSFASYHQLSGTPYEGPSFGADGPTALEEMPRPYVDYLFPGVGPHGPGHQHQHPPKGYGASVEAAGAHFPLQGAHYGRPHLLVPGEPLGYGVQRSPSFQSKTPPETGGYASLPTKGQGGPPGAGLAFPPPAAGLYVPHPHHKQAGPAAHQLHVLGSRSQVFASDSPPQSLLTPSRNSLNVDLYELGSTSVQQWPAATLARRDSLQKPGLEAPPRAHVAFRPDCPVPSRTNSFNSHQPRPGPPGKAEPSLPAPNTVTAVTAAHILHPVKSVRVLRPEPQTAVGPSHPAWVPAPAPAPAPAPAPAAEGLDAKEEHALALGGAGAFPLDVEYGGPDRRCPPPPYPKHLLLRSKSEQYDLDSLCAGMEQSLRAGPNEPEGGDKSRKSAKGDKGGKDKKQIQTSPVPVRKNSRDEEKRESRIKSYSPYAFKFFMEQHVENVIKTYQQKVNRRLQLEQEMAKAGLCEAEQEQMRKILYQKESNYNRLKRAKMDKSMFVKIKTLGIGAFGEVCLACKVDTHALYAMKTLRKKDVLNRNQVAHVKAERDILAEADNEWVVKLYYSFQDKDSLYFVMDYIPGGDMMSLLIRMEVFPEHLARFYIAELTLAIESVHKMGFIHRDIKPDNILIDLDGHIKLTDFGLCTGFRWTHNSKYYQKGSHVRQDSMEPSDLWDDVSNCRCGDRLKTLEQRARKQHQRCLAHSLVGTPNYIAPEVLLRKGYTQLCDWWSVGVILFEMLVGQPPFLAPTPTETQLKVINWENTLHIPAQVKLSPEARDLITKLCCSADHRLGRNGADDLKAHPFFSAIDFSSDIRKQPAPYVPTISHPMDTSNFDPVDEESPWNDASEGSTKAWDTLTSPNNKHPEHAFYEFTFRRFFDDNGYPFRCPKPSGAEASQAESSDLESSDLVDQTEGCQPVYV
Sequence of STK16 (human) (O75716 whole entry, looked up): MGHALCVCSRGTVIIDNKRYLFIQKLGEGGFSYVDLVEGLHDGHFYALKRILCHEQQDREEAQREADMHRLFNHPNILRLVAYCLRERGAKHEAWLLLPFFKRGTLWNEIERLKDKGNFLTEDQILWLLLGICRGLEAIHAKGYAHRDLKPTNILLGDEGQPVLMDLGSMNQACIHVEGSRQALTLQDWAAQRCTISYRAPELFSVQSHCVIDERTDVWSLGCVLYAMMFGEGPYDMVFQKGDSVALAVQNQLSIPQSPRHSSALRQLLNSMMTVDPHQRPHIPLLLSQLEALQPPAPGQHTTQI
Sequence of FLT3 (human), P36888 [ITD] (P36888 whole entry, looked up, change not shown): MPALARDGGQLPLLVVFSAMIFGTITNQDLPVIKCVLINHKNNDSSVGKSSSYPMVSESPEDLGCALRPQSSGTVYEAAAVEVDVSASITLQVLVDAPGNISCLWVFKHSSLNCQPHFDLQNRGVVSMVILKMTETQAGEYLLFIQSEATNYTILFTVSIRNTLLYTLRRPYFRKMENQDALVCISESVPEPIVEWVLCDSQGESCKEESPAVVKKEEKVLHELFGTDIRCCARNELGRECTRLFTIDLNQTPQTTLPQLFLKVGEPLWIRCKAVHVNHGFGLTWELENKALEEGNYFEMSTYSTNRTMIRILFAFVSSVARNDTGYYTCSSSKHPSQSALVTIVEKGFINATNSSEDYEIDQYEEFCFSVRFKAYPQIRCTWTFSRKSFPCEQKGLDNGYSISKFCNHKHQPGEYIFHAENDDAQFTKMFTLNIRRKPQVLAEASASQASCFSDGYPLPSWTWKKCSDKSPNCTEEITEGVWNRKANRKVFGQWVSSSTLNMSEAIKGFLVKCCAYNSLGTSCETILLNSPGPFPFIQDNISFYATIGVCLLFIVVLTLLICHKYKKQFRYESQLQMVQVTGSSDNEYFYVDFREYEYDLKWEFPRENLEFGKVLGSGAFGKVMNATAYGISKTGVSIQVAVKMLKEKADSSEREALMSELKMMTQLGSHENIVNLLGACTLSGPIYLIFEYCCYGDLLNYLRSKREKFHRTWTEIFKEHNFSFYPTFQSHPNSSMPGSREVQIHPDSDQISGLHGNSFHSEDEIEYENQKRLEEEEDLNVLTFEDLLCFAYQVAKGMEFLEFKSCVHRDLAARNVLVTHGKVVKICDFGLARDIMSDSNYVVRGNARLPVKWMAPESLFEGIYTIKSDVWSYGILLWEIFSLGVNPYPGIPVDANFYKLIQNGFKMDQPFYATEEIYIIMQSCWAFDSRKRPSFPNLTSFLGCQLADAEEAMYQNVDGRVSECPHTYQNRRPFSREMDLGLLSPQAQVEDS

Row | kinase still bound, per cent of control (AAK1 (human)) [%] | kinase still bound, per cent of control (AKT3 (human)) [%] | kinase still bound, per cent of control (ANKK1 (human)) [%] | kinase still bound, per cent of control (BLK (human)) [%] | kinase still bound, per cent of control (BMPR1B (human)) [%] | kinase still bound, per cent of control (CAMK2D (human)) [%] | kinase still bound, per cent of control (CAMKK2 (human)) [%] | kinase still bound, per cent of control (CDC2L2 (human)) [%] | kinase still bound, per cent of control (CDK17 (human)) [%] | kinase still bound, per cent of control (CHEK1 (human)) [%] | kinase still bound, per cent of control (CLK1 (human)) [%] | kinase still bound, per cent of control (CSNK1G1 (human)) [%] | kinase still bound, per cent of control (DMPK (human)) [%] | kinase still bound, per cent of control [1] [%] | kinase still bound, per cent of control (EPHB2 (human)) [%] | kinase still bound, per cent of control (EPHB3 (human)) [%] | kinase still bound, per cent of control (FES (human)) [%] | kinase still bound, per cent of control [2] [%] | kinase still bound, per cent of control (FLT4 (human)) [%] | kinase still bound, per cent of control [3] [%] | SMILES | other results
1 | 100 | 100 | 100 | 100 | 100 | 100 | 24 | 100 | 100 | 100 | 18 | 100 | 100 | 100 | 100 | 100 | 100 | 100 | 100 | 22 | COc1cc(C(=O)NC2CCN(C)CC2)ccc1Nc1ncc2c(n1)N(C1CCCC1)C(C)CC(=O)N2C (stereo not given) | kinase still bound, per cent of control [4]: 100%; kinase still bound, per cent of control (LATS1 (human)): 100%; kinase still bound, per cent of control (LATS2 (human)): 100%; kinase still bound, per cent of control (MAP3K11 (human)): 100%; kinase still bound, per cent of control (MAPK1 (human)): 100%; kinase still bound, per cent of control (MARK1 (human)): 100%; kinase still bound, per cent of control (MST1R (human)): 100%; kinase still bound, per cent of control (NEK1 (human)): 100%; kinase still bound, per cent of control (NEK2 (human)): 100%; kinase still bound, per cent of control (PAK2 (human)): 100%; kinase still bound, per cent of control (PKN1 (human)): 100%; kinase still bound, per cent of control (PRKCD (human)): 100%; kinase still bound, per cent of control (PRKCE (human)): 100%; kinase still bound, per cent of control (RPS6KA1 KD1 (human)): 100%; kinase still bound, per cent of control (SGK110 (human)): 100%; kinase still bound, per cent of control (SRPK1 (human)): 100%; kinase still bound, per cent of control (STK16 (human)): 100%; kinase still bound, per cent of control (STK17A (human)): 100%; kinase still bound, per cent of control (STK17B (human)): 100%; kinase still bound, per cent of control (STK32C (human)): 100%
2 | 100 | 100 | 100 | 100 | 100 | 100 | 100 | 100 | 100 | 100 | 100 | 100 | 100 | 100 | 1.6 | 3.3 | 100 | 100 | 100 | 100 | Cc1ccc(C(=O)Nc2cccc(C(F)(F)F)c2)cc1Nc1cncc(C(N)=O)c1 | kinase still bound, per cent of control [4]: 100%; kinase still bound, per cent of control (LATS1 (human)): 100%; kinase still bound, per cent of control (LATS2 (human)): 100%; kinase still bound, per cent of control (MAP3K11 (human)): 100%; kinase still bound, per cent of control (MAPK1 (human)): 100%; kinase still bound, per cent of control (MARK1 (human)): 100%; kinase still bound, per cent of control (MST1R (human)): 100%; kinase still bound, per cent of control (NEK1 (human)): 100%; kinase still bound, per cent of control (NEK2 (human)): 100%; kinase still bound, per cent of control (PAK2 (human)): 100%; kinase still bound, per cent of control (PKN1 (human)): 100%; kinase still bound, per cent of control (PRKCD (human)): 100%; kinase still bound, per cent of control (PRKCE (human)): 100%; kinase still bound, per cent of control (RPS6KA1 KD1 (human)): 100%; kinase still bound, per cent of control (SGK110 (human)): 100%; kinase still bound, per cent of control (SRPK1 (human)): 100%; kinase still bound, per cent of control (STK16 (human)): 100%; kinase still bound, per cent of control (STK17A (human)): 100%; kinase still bound, per cent of control (STK17B (human)): 100%; kinase still bound, per cent of control (STK32C (human)): 100%

Row | SMILES | kinase still bound, per cent of control (AAK1 (human)) [%] | kinase still bound, per cent of control (AKT3 (human)) [%] | kinase still bound, per cent of control (ANKK1 (human)) [%] | kinase still bound, per cent of control (BLK (human)) [%] | kinase still bound, per cent of control (BMPR1B (human)) [%] | kinase still bound, per cent of control (CAMK2D (human)) [%] | kinase still bound, per cent of control (CAMKK2 (human)) [%] | kinase still bound, per cent of control (CDC2L2 (human)) [%] | kinase still bound, per cent of control (CDK17 (human)) [%] | kinase still bound, per cent of control (CHEK1 (human)) [%] | kinase still bound, per cent of control (CLK1 (human)) [%] | kinase still bound, per cent of control (CSNK1G1 (human)) [%] | kinase still bound, per cent of control (DMPK (human)) [%] | kinase still bound, per cent of control [1] [%] | kinase still bound, per cent of control (EPHB2 (human)) [%] | kinase still bound, per cent of control (EPHB3 (human)) [%] | kinase still bound, per cent of control (FES (human)) [%] | kinase still bound, per cent of control [2] [%] | kinase still bound, per cent of control (FLT4 (human)) [%] | kinase still bound, per cent of control [3] [%] | other results
3 | CCN1CCN(Cc2ccc(Nc3ncc4c(n3)N(C)c3ccccc3C(=O)N4C)cc2C(F)(F)F)CC1 | 36 | 100 | 18 | 8.3 | 53 | 69 | 47 | 97 | 88 | 57 | 86 | 7.6 | 91 | 88 | 100 | 80 | 100 | 19 | 100 | 0.1 | kinase still bound, per cent of control [4]: 9.8%; kinase still bound, per cent of control (LATS1 (human)): 100%; kinase still bound, per cent of control (LATS2 (human)): 91%; kinase still bound, per cent of control (MAP3K11 (human)): 84%; kinase still bound, per cent of control (MAPK1 (human)): 77%; kinase still bound, per cent of control (MARK1 (human)): 21%; kinase still bound, per cent of control (MST1R (human)): 100%; kinase still bound, per cent of control (NEK1 (human)): 66%; kinase still bound, per cent of control (NEK2 (human)): 100%; kinase still bound, per cent of control (PAK2 (human)): 78%; kinase still bound, per cent of control (PKN1 (human)): 76%; kinase still bound, per cent of control (PRKCD (human)): 100%; kinase still bound, per cent of control (PRKCE (human)): 81%; kinase still bound, per cent of control (RPS6KA1 KD1 (human)): 100%; kinase still bound, per cent of control (SGK110 (human)): 0.6%; kinase still bound, per cent of control (SRPK1 (human)): 82%; kinase still bound, per cent of control (STK16 (human)): 15%; kinase still bound, per cent of control (STK17A (human)): 100%; kinase still bound, per cent of control (STK17B (human)): 100%; kinase still bound, per cent of control (STK32C (human)): 100%
